According to publication PMC12377721 (2025):

Assays:
Assay in all cases: ITC
Settings in all cases: 500 mM NaCl, 20 mM MgCl2; 50 mM Tris pH 7.6, 25 °C
[1] = system: 1301b_v1 (DNA, aptamer) CGACGTTTGCGATGAGAACGAAGTTCGAAGGTCG
[2] = system: wild-type 1301b (DNA, aptamer) ACGACGTTTGCGATGAGAAACGTATGGTTTCGAAGGTCGT
[3] = system: 9/10/14/16^OMe (DNA, aptamer, 2'-O-methyl at G9, C10, G14, G16) CGACGTTTGCGATGAGAACGAAGTTCGAAGGTCG

SMILES | binding [1] | KD [1] | other results
Nc1ccn([C@@H]2O[C@H](COP(=O)(O)OP(=O)(O)OP(=O)(O)O)[C@@H](O)[C@H]2O)c(=O)n1 | no | – | –
Nc1nc2c(ncn2[C@@H]2O[C@H](COP(=O)(O)OP(=O)(O)OP(=O)(O)O)[C@@H](O)[C@H]2O)c(=O)[nH]1 | no | – | –
Nc1ncnc2c1ncn2[C@@H]1O[C@H](COP(=O)(O)O)[C@@H](O)[C@H]1O | – | 13.2 ± 2.4 µM | –
Nc1ncnc2c1ncn2[C@@H]1O[C@H](COP(=O)(O)OP(=O)(O)O)[C@@H](O)[C@H]1O | – | 4.4 ± 0.3 µM | –
Nc1ncnc2c1ncn2[C@@H]1O[C@H](COP(=O)(O)OP(=O)(O)OP(=O)(O)O)[C@@H](O)[C@H]1O | – | 1.9 ± 0.1 µM | KD [2]: 2.7 ± 0.6 µM; KD [3]: 3.8 ± 0.4 µM

Now from value to compound, other results behind:

binding [1] | KD [1] | SMILES | other results
no | – | Cc1cn([C@H]2C[C@H](O)[C@@H](COP(=O)(O)OP(=O)(O)OP(=O)(O)O)O2)c(=O)[nH]c1=O | –
– | 3.4 ± 0.2 µM | Nc1ncnc2c1ncn2[C@H]1C[C@H](O)[C@@H](COP(=O)(O)OP(=O)(O)OP(=O)(O)O)O1 | –
no | – | O=c1ccn([C@@H]2O[C@H](COP(=O)(O)OP(=O)(O)OP(=O)(O)O)[C@@H](O)[C@H]2O)c(=O)[nH]1 | –
